Reference: ChEMBL document CHEMBL1151358, “Doridosine, 1-methylisoguanosine, from Anisodoris nobilis; structure, pharmacological properties and synthesis” (1981)

Legend:
[1] = Inhibition of guinea pig atrial contraction at 20 uM; type: functional; details: Cavia porcellus, Cardiac atrium
[2] = Inhibition of guinea pig atrial contraction at 20 uM in presence of 10 uM/L theophylline; type: functional, Cavia porcellus, Cardiac atrium
[3] = Inhibition of guinea pig atrial contraction at 5 uM in presence of 100 uM/L theophylline; type: functional, Cavia porcellus, Cardiac atrium
[4] = Inhibition of guinea pig atrial contraction at 5 uM; type: functional; details: Cavia porcellus, Cardiac atrium
[5] = Inhibition of guinea pig atrial contraction at 20 uM in presence of 100 uM/L theophylline; type: functional, Cavia porcellus, Cardiac atrium
[6] = Inhibition of guinea pig atrial contraction at 5 uM in presence of 10 uM/L theophylline; type: functional, Cavia porcellus, Cardiac atrium
[7] = Inhibition of guinea pig atrial contraction at 14 uM; type: functional; details: Cavia porcellus, Cardiac atrium

Cn1c(=O)[nH]c2c(ncn2[C@@H]2O[C@H](CO)[C@@H](O)[C@H]2O)c1=N
inhibition at 20 µM [1]: 45.2%
inhibition (INH) [2]: 95%
inhibition (INH) [3]: 64%
inhibition at 5 µM [4]: 65%
inhibition (INH) [5]: 82%
inhibition (INH) [6]: 83%
inhibition at 14 µM [7]: 50%
